Experimental findings from ChEMBL document CHEMBL1140614, “In silico and in vitro filters for the fast estimation of skin permeation and distribution of new chemical entities” (J Med Chem, 2007) are described below.

Each structure is given as a SMILES string.

One data set deals with Zone of skin. The conditions noted are these: human.
The next data set in a line: physchem. The conditions noted are these: octanol/water.
For data set [1] the following is noted: PAMPA, 7 h. On the technique in general: The PAMPA barrier holds no transporters, so it reflects passive diffusion.
The conditions of data set [2]: octanol/water.

A word on the logP: it is the decadic logarithm of the partition coefficient of the neutral form, usually between octanol and water. A lower logP goes with a more hydrophilic compound. Regarding `CCc1ccc(O)cc1`, the “log Kp” value in the data set on Zone of skin was -5.01. In “physchem”, this molecule had a logP of 2.47.
Turning to `Nc1cc([N+](=O)[O-])ccc1O` [2-AMINO-4-NITROPHENOL], in the data set with Zone of skin, the “log Kp” value is listed as -6.62.
Regarding `O=C(O)CCCCc1ccccc1` [5-PHENYLVALERIC ACID], the logP in “physchem” was determined as 2.85.
As for `Cc1cc(=O)n(-c2ccccc2)n1C` [ANTIPYRINE], in the data set with Zone of skin, the “log Kp” value is -7.74.
The same measure, in the same setting: under `CCNc1nc(Cl)nc(NC(C)C)n1` [ATRAZINE] stands -5.56.
As for `O=C(O)c1ccccc1` [BENZOIC ACID], the “log Kp” value with Zone of skin is reported as -5.08.
The same measure, in the same setting: the result for `O=C(OCc1ccccc1)c1cccnc1` [BENZYL NICOTINATE] reads -5.35.
Molecule `C[C@H]1C[C@H]2[C@@H]3CCC4=CC(=O)C=C[C@]4(C)[C@@]3(F)[C@@H](O)C[C@]2(C)[C@@]1(O)C(=O)CO` [BETAMETHASONE] displayed a logP in the data set “physchem” of 2.01.
As to `Oc1ccc2ccccc2c1` [BETANAPHTHOL], in the data set with Zone of skin, the “log Kp” value is given as -5.11. Besides, the “log Pe” value in data set [1] is -4.19.
For the molecule `Cn1c(=O)c2c(ncn2C)n(C)c1=O` [CAFFEINE], the “log Kp” value in the data set with Zone of skin is listed as -7.56. In addition, in data set [1], the “log Pe” value was -5.63.
Consider `O=C(O)Cc1ccccc1Nc1c(Cl)cccc1Cl` [DICLOFENAC], for which, in the data set on Zone of skin, the “log Kp” value was -5.3.
Consider `C/C=C(/C(=C/C)c1ccc(O)cc1)c1ccc(O)cc1` [DIENESTROL], for which the logP in the data set “physchem” stood at 4.5.
`CN[C@@H](C)[C@H](O)c1ccccc1` [EPHEDRINE]: the “log Kp” value with Zone of skin was -5.75.
`CC(C(=O)O)c1ccc(-c2ccccc2)c(F)c1` (centres undefined) [FLURBIPROFEN]: the logP in the data set “physchem” came out at 3.99.
Consider `COc1ccc2c(c1)c(CC(=O)O)c(C)n2C(=O)c1ccc(Cl)cc1` [INDOMETHACIN], for which the logP in data set [2] is 4.27. Also, the “log Kp” value in the data set with Zone of skin is listed as -5.39.
Turning to `c1ccc2cnccc2c1` [ISOQUINOLINE], the “log Kp” value with Zone of skin is reported as -5.33.
Turning to `CC(C(=O)O)c1cccc(C(=O)c2ccccc2)c1` (centres undefined) [KETOPROFEN], in the data set on Zone of skin, the “log Kp” value is recorded as -4.7.
As to `COC(=O)c1cccnc1` [METHYL NICOTINATE], in the data set with Zone of skin, the “log Kp” value is given as -6.04. Besides, the logP in “physchem” was 0.87.
`CN1CCC[C@H]1c1cccnc1` [NICOTINE]: the “log Kp” value in the data set with Zone of skin was -5.26. The “log Pe” value in data set [1] was -4.58.
Regarding `Cc1ccccc1O` [ORTHOCRESOL], the “log Kp” value in the data set with Zone of skin is listed as -5.36. In the data set “physchem”, this molecule returned a logP of 1.94.
`O=[N+]([O-])c1ccc(O)cc1` [P-NITROPHENOL]: in the data set with Zone of skin, the “log Kp” value is recorded as -5.81.
For `Oc1ccc(Cl)cc1` [PARACHLOROPHENOL], the “log Kp” value in the data set with Zone of skin is listed as -5.
As for `CCC1(c2ccccc2)C(=O)NC(=O)NC1=O` [PHENOBARBITAL], in the data set with Zone of skin, the “log Kp” value is listed as -6.9.
On to `Oc1ccccc1` [PHENOL], for which, in the data set on Zone of skin, the “log Kp” value is -5.64. Further, the “log Pe” value in data set [1] was -4.14.
Turning to `CN1C(C(=O)Nc2ccccn2)=C(O)c2ccccc2S1(=O)=O` [PIROXICAM], in the data set with Zone of skin, the “log Kp” value was -6.02.
Turning to `CC(=O)[C@H]1CC[C@H]2[C@@H]3CCC4=CC(=O)CC[C@]4(C)[C@H]3CC[C@]12C` [PROGESTERONE], the “log Kp” value in the data set with Zone of skin is -5.08. Further, in data set [1], the “log Pe” value is -4.56.
For `CC(C)NCC(O)COc1cccc2ccccc12` (centres undefined) [PROPRANOLOL], in data set [1], the “log Pe” value is given as -4.25.
Same read-out and setting: under `c1ccncc1` [PYRIDINE] stands -4.35; under `O=C(O)c1ccccc1O` [SALYCILIC ACID], -4.16.
In the data set “physchem”, `C[C@]12CCC(=O)C=C1CC[C@@H]1[C@@H]2CC[C@@]2(C)[C@H]1CC[C@@]21CCC(=O)O1` [SPRIOLACTONE] gave a logP of 2.26.
As for `Nc1ccc(S(=O)(=O)NC(=O)c2ccccc2)cc1` [SULFABENZAMIDE], the logP in the data set “physchem” is 1.46.
In “physchem”, `NC(=O)NS(=O)(=O)c1ccc(N)cc1` [SULFACARBAMIDE] had a logP of -1.1.
With `Nc1ccc(S(=O)(=O)Nc2ncccn2)cc1` [SULFADIAZINE], the “log Pe” value in data set [1] is -6.2. Also, the logP in the data set “physchem” was -0.12.
For `Cc1ccc(C(C)C)c(O)c1` [THYMOL], the “log Kp” value with Zone of skin is -4.83.
